From patent US7572809B2, “Isoquinoline aminopyrazole derivatives” (Hoffmann-La Roche Inc., priority 2005, dated 2009)

System: HCT 116 cells
Assay: Viability assay in HCT 116 cells (CellTiter-Glo)
Type: cell-based
Conditions: 120 h; HCT 116 human colon carcinoma cells, 5 days incubation
Method: Viability Assay in HCT 116 Cells
A viability assay was performed using the CellTiter-Glo® Luminescent Cell Viability Assay (see Promega Corporation's Technical Bulletin No. 288, pp. 1-11 [revised February, 2004] which is hereby incorporated by reference in its entirety). This assay is a homogeneous method of determining the number of viable cells in culture based on quantitation of the ATP present, an indicator of metabolically active cells. The assay is designed for use with multiwell formats, making it ideal for automated high-throughput screening (HTS), cell proliferation and cytotoxicity assays. The homogeneous assay procedure involves adding a single reagent (containing luciferase, luciferan substrate, and buffer) directly to cells cultured in serum-supplemented medium. Cell washing, removal of medium and multiple pipetting steps are not required. The system detects as few as 15 cells/well in a 384-well format in 10 minutes after adding reagent and mixing.
The homogeneous “add-mix-measure” format results in cell lysis and generation of a luminescent signal proportional to the amount of ATP present. The amount of ATP is directly proportional to the number of cells present in culture. The above-referenced assay generates a “glow-type” luminescent signal, produced by the luciferase reaction, which has a half-life generally greater than five hours, depending on cell type and medium used. The extended half-life eliminates the need to use reagent injectors and provides flexibility for continuous or batch mode processing of multiple plates. The unique homogeneous format avoids errors that may be introduced by other ATP measurement methods that require multiple steps.
HCT 116 cells (human colon carcinoma, ATCC-No. CCl-247) were cultivated in RPMI 1640 medium with GlutaMAX™ I (cell culture media that contains L-Alanyl-L-Glutamine [a stabilized form/source of L-Glutamine] from Invitrogen, Cat-No. 61870-010), 5% Fetal Calf Serum (FCS, Sigma Cat-No. F4135 (FBS)); 100 Units/ml penicillin/100 μg/ml streptomycin (=Pen/Strep from Invitrogen Cat. No. 15140). For the assay the cells were seeded in 384 well plates, 1000 cells per well, in the same medium. The next day the test compounds were added in various concentrations ranging from 30 μM to 0.0015 μM (10 concentrations, 1:3 diluted). After 5 days the viability assay was performed according to the instructions of the manufacturer. In brief: the cell-plate was equilibrated to room temperature for approximately 30 minutes and then the CellTiter-Glo™ reagent (which contains luciferase, luciferan substrate, and buffer) was added. The contents were carefully mixed for 15 minutes to induce cell lysis. After 45 minutes the luminescent signal was measured in Victor 2, (scanning multiwell spectrophotometer, Wallac).
1st. Day: • Medium: RPMI 1640 with GlutaMAX™ I (Invitrogen, Cat-No. 61870), 5% FCS (Sigma Cat.-No. F4135), Pen/Strep (Invitrogen, Cat No. 15140). • HCT116 (ATCC-No. CCl-247): 1000 cells in 60 μl per well of 384 well plate (Greiner 781098, μClear-plate white) • After seeding incubate plates 24 h at 37° C., 5% CO2 2nd. Day: Induction (Treatment with Compounds, 10 Concentrations):
In order to achieve a final concentration of 30 μM as highest concentration 3.5 μl of 10 mM compound stock solution were added directly to 163 μl media. Then step e) of the dilution procedure described below, was followed.
In order to achieve the second highest to the lowest concentrations, a serial dilution with dilution steps of 1:3 was followed according to the procedure (a-e) as described here below: a) for the second highest concentration add 10 μl of 10 mM stock solution of compound to 20 μl dimethylsulfoxide (DMSO) b) dilute 8×1:3 (always 10 μl to 20 μl DMSO) in this DMSO dilution row (results in 9 wells with concentrations from 3333.3 μM to 0.51 μM) c) dilute each concentration 1:47.6 (3.5 μl compound dilution to 163 μl media) […]

Row | SMILES | IC50
1 | Cc1cc(Nc2cc3ccccc3c(Oc3ccccc3)n2)n[nH]1 [Example 11, (5-Methyl-1H-pyrazol-3-yl)-(1-phenoxy-isoquinolin-3-yl)-amine] | 1.83 µM
2 | Cc1cc(Nc2cc3ccccc3c(OCc3ccccc3)n2)n[nH]1 [Example 12, (1-Benzyloxy-isoquinolin-3-yl)-(5-methyl-1H-pyrazol-3-yl)-amine] | 3.32 µM
3 | Cc1cc(Nc2cc3ccccc3c(Oc3ccccc3C)n2)n[nH]1 [Example 21, (5-Methyl-1H-pyrazol-3-yl)-(1-o-tolyloxy-isoquinolin-3-yl)-amine] | 5.67 µM
4 | Cc1cc(Nc2cc3ccccc3c(Oc3cccc(C#N)c3)n2)n[nH]1 [Example 28, 3-[3-(5-Methyl-1H-pyrazol-3-ylamino)-isoquinolin-1-yloxy]-benzonitrile] | 0.999 µM
5 | Cc1cc(Nc2cc3ccccc3c(OC3CCCCC3)n2)n[nH]1 [Example 33, (1-Cyclohexyloxy-isoquinolin-3-yl)-(5-methyl-1H-pyrazol-3-yl)-amine] | 3.24 µM
6 | COc1ccc2c(Oc3ccc(C#N)cc3)nc(Nc3cc(C)[nH]n3)cc2c1 [Example 39, 4-[3-(5-Methyl-1H-pyrazol-3-ylamino)-6-methoxy-isoquinolin-1-yloxy]-benzonitrile] | 1.38 µM
7 | COc1ccc2c(OC(C)C)nc(Nc3cc(C)[nH]n3)cc2c1 [Example 56, (1-Isopropoxy-6-methoxy-isoquinolin-3-yl)-(5-methyl-1H-pyrazol-3-yl)-amine] | 0.636 µM
8 | COc1ccc2c(Oc3ccc(F)cc3)nc(Nc3cc(C)[nH]n3)cc2c1OC [Example 94, [1-(4-Fluoro-phenoxy)-5,6-dimethoxy-isoquinolin-3-yl]-(5-methyl-1H-pyrazol-3-yl)-amine] | 2.54 µM
9 | COc1cc2cc(Nc3cc(C)[nH]n3)nc(OC3CCC3)c2cc1OC [Example 125, (1-Cyclobutoxy-6,7-dimethoxy-isoquinolin-3-yl)-(5-methyl-1H-pyrazol-3-yl)-amine] | 0.51 µM
10 | Cc1cc(Nc2cc3ccccc3c(-c3ccccc3)n2)n[nH]1 [Example 131, (5-Methyl-1H-pyrazol-3-yl)-(1-phenyl-isoquinolin-3-yl)-amine] | 3.93 µM
11 | Cc1cc(Nc2cc3ccccc3c(-c3ccc(Cl)cc3)n2)n[nH]1 [Example 140, [1-(4-Chloro-phenyl)-isoquinolin-3-yl]-(5-methyl-1H-pyrazol-3-yl)-amine] | 2.61 µM
12 | COc1cccc2c(-c3ccccc3)nc(Nc3cc(C)[nH]n3)cc12 [Example 202, (5-Methoxy-1-phenyl-isoquinolin-3-yl)-(5-methyl-1H-pyrazol-3-yl)-amine] | 1.41 µM
13 | COc1ccc2c(-c3ccc(C(C)=O)cc3)nc(Nc3cc[nH]n3)cc2c1 [Example 252, 1-{4-[6-Methoxy-3-(1H-pyrazol-3-ylamino)-isoquinolin-1-yl]-phenyl}-ethanone] | 3.87 µM
14 | COc1ccc2c(Nc3ccncc3)nc(Nc3cc(C)[nH]n3)cc2c1 [Example 288, 6-Methoxy-N^3-(5-methyl-1H-pyrazol-3-yl)-N^1-pyridin-4-yl-isoquinoline-1,3-diamine] | 1.29 µM
15 | COCCCNC(=O)c1ccc2c(-c3ccc(F)cc3F)nc(Nc3cc(C)[nH]n3)cc2c1 [Example 302, 1-(2,4-Difluoro-phenyl)-3-(5-methyl-1H-pyrazol-3-ylamino)-isoquinoline-6-carboxylic acid (3-methoxy-propyl)-amide] | 3.07 µM
16 | COc1cccc(Sc2nc(Nc3cc(C)[nH]n3)cc3ccccc23)c1 [Example 306, [1-(3-Methoxy-phenylsulfanyl)-isoquinolin-3-yl]-(5-methyl-1H-pyrazol-3-yl)-amine] | 1.57 µM

More lines, in order of falling IC50, values ahead:

Row | IC50 | SMILES
17 | 5.31 µM | Cc1cc(Nc2cc3ccccc3c(-c3cnn(C)c3)n2)n[nH]1 [Example 164, (5-Methyl-1H-pyrazol-3-yl)-[1-(1-methyl-1H-pyrazol-4-yl)-isoquinolin-3-yl]-amine]
18 | 3.76 µM | Cc1cc(Nc2cc3ccccc3c(Sc3ccc(F)cc3)n2)n[nH]1 [Example 312, [1-(4-Fluoro-phenylsulfanyl)-isoquinolin-3-yl]-(5-methyl-1H-pyrazol-3-yl)-amine]
19 | 3.5 µM | COc1ccc2c(OCCN3CCOCC3)nc(Nc3cc(C)[nH]n3)cc2c1 [Example 53, (5-Methyl-1H-pyrazol-3-yl)-[1-(2-morpholin-4-yl-ethoxy)-6-methoxy-isoquinolin-3-yl]-amine]
20 | 3.44 µM | COc1ccc2c(-c3cn[nH]c3)nc(Nc3cc(C)[nH]n3)cc2c1 [Example 194, (5-Methyl-1H-pyrazol-3-yl)-[1-(1H-pyrazol-4-yl)-6-methoxy-isoquinolin-3-yl]-amine]
21 | 3.17 µM | FC(F)(F)c1ccc(-c2nc(Nc3cc[nH]n3)cc3ccccc23)cc1 [Example 220, (1H-Pyrazol-3-yl)-[1-(4-trifluoromethyl-phenyl)-isoquinolin-3-yl]-amine]
22 | 3.11 µM | COc1ccc2c(C(=O)NCC3CC3)nc(Nc3cc(C)[nH]n3)cc2c1 [Example 318, 6-Methoxy-3-(5-methyl-1H-pyrazol-3-ylamino)-isoquinoline-1-carboxylic acid cyclopropylmethyl-amide]
23 | 1.94 µM | COc1ccc2cc(Nc3cc(C)[nH]n3)nc(Oc3ccc(Cl)cc3)c2c1 [Example 77, [1-(4-Chloro-phenoxy)-7-methoxy-isoquinolin-3-yl]-(5-methyl-1H-pyrazol-3-yl)-amine]
24 | 1.93 µM | Cc1cc(Nc2cc3ccccc3c(Oc3ccc(Cl)cc3)n2)n[nH]1 [Example 16, [1-(4-Chloro-phenoxy)-isoquinolin-3-yl]-(5-methyl-1H-pyrazol-3-yl)-amine]
25 | 1.9 µM | Cc1cc(Nc2cc3ccccc3c(-c3csc4ccccc34)n2)n[nH]1 [Example 159, (1-Benzo[b]thiophen-3-yl-isoquinolin-3-yl)-(5-methyl-1H-pyrazol-3-yl)-amine]
26 | 1.79 µM | Cc1cc(Nc2cc3ccccc3c(Nc3cccc(Cl)c3)n2)n[nH]1 [Example 294, N^1-(3-Chloro-phenyl)-N^3-(5-methyl-1H-pyrazol-3-yl)-isoquinoline-1,3-diamine]
27 | 1.54 µM | COc1ccc2c(-c3ccc(C)cc3)nc(Nc3cc[nH]n3)cc2c1 [Example 263, (6-Methoxy-1-p-tolyl-isoquinolin-3-yl)-(1H-pyrazol-3-yl)-amine]
28 | 1.53 µM | COc1cccc(-c2nc(Nc3cc(C)[nH]n3)cc3cc(OCCN4CCOCC4)ccc23)c1 [Example 300, [1-(3-Methoxy-phenyl)-6-(2-morpholin-4-yl-ethoxy)-isoquinolin-3-yl]-(5-methyl-1H-pyrazol-3-yl)-amine]
29 | 1.37 µM | COc1cccc2c(Oc3ccc(C)cc3)nc(Nc3cc(C)[nH]n3)cc12 [Example 67, (5-Methyl-1H-pyrazol-3-yl)-(1-p-tolyloxy-5-methoxy-isoquinolin-3-yl)-amine]
